Measured values reported in patent US12338253B2, “Nitrogen-containing polycyclic fused ring compound, pharmaceutical composition thereof, preparation method therefor and use thereof” (APPLIED PHARMACEUTICAL SCIENCE, INC., priority 2019, dated 2025).

Tests used:
RET wt = RET wt (Homo sapiens (Human), UniProt P07949); test: HTRF kinase activity test, RET wt; format: biochemical
RET V804M = RET V804M (Homo sapiens (Human), UniProt P07949, V804M); test: HTRF kinase activity test, RET V804M; format: biochemical
Chain of RET V804M (P07949 29-1114 V804M): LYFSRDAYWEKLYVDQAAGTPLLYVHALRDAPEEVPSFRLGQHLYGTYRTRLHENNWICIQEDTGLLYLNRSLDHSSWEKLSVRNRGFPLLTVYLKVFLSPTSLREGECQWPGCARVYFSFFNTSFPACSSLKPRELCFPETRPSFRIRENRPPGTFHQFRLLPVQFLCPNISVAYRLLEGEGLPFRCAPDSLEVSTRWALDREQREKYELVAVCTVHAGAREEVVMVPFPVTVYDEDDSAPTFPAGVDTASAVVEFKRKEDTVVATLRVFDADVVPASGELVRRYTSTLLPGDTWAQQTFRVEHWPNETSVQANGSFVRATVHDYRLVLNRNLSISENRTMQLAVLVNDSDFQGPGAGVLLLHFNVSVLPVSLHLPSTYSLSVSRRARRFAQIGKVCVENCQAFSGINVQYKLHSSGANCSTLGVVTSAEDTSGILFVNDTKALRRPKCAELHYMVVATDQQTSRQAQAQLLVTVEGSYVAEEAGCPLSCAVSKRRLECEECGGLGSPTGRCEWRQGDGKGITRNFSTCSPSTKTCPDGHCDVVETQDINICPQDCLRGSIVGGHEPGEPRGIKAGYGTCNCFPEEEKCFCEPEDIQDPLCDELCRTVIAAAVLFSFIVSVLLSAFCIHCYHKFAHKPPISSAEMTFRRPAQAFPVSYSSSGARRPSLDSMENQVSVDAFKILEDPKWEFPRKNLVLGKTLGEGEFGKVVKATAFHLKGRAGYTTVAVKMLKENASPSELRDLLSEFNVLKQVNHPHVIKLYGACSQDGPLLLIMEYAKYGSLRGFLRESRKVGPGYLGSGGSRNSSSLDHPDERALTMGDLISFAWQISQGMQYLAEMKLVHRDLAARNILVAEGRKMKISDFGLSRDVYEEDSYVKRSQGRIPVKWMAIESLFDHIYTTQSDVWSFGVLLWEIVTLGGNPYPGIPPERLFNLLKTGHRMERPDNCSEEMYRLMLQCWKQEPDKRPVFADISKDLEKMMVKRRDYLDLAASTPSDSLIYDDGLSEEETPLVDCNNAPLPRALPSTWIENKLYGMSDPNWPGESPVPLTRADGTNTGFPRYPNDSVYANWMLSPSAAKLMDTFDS

RET G810R = RET G810R (Homo sapiens (Human), UniProt P07949, G810R); test: HTRF kinase activity test, RET G810R; format: biochemical
Chain of RET G810R (P07949 29-1114 G810R): as the sequence (P07949 29-1114 V804M) above, with M776V, G782R counted along it

TT Cell = test: TT cell activity test (CelltiterGlo, 72 h); format: cell-based, human
[1] = system: TT cell human medullary thyroid carcinoma xenograft model; test: Pharmacodynamic test on TT cell human medullary thyroid carcinoma xenograft model; format: in vivo, mice; conditions: 10 mg/kg, oral, twice a day, 28 consecutive days
Procedure: TT tumor cells were cultured in F12K medium containing inactivated 10% fetal bovine serum, 100 U/mL penicillin, 100 μg/mL streptomycin and 2 mM glutamine in an incubator at 37° C. and 5% CO2. The cells were cultured at a starting concentration of 1×10^6 cells/mL, and divided and transferred to flasks for sub-culture every 3 to 4 days when they were overgrown. The tumor cells in the logarithmic growth phase were used for tumor inoculation in vivo.
The TT tumor cells resuspended in serum-free F12K medium at a concentration of 1×10^7 cells+gel/100 μL were inoculated subcutaneously into the right flank of experimental animals. When the tumor grew to about 224 mm^3, the compounds were administered in groups, with 6 animals in each group.
The mice were orally administered with the test compound twice a day for 28 consecutive days.
Tumor volume: the long and short diameters of the tumor were measured using a vernier caliper. The volume was calculated by the formula: volume=0.5×long diameter×short diameter^2. Animals were required to have their body weight and tumor size measured twice a week during the administration.
Reaction of animals after the administration: the experimental animals were weighed while measuring the tumors. The relationship between the change in the animal weight and the time of administration was recorded. At the same time, the survival and health of the mice, such as animal activity, feeding and other general states during the administration were observed.
Relative tumor proliferation rate T/C (%)=TRTV/CRTV×100% (TRTV: treatment group RTV; CRTV: negative control group RTV), where the relative tumor volume (RTV) is calculated as: RTV=Vt/V0, where V0 is the tumor volume measured at the time of group administration (that is, day 1 of the administration), and Vt is the tumor volume at each measurement. Tumor growth inhibition rate TGI (%)=(1−T/C)×100%.

[2] = system: Ba/F3 cell KIF5B-RET-V804M fusion xenograft model; test: Pharmacodynamic test on Ba/F3 cell KIF5B-RET-V804M fusion xenograft model; format: in vivo, BALB/c nude mice; conditions: 10 mg/kg; for tumor volume compared with the selpercatinib group: p<0.05

Chain of RET wt (P07949 29-1114): as the sequence (P07949 29-1114 V804M) above, with M776V counted along it

Q: How did the IC50 (RET wt; HTRF KinEASE-TK) turn out when `COc1ccc(CN2C3CC2CN(c2ccc(-c4cc(OCCF)cn5nc6[nH]ncc6c45)cn2)C3)cn1` [Compound 31, 6-(2-fluoroethoxy)-4-(6-(6-((6-methoxypyridin-3-yl)methyl)-3,6-diazabicyclo[3.3.1]heptan-3-yl)pyridin-3-yl)-1H-pyrazolo[3′,4′:3,4]pyrazolo[1,5-a]pyridine] was run?
A: Its IC50 is 0.1 nM.

Q: What about the “inhibitory activity on RET wt compared with cabozantinib” value (RET wt; comparison in words) of the same compound?
A: Its value is “significantly better than that of cabozantinib”.

Q: What about the IC50 (RET V804M; HTRF KinEASE-TK) of the same compound?
A: The IC50 was 0.1 nM.

Q: What about the “inhibitory activity on RET V804M compared with cabozantinib” value (RET V804M; comparison in words) of the same compound?
A: The value was “significantly better than that of cabozantinib”.

Q: What about the IC50 (RET G810R; HTRF KinEASE-TK) of the same compound?
A: The IC50 was 1 nM.

Q: What about the “inhibitory activity on RET G810R compared with cabozantinib and selpercatinib (LOXO-292)” value (RET G810R; comparison in words) of the same compound?
A: Its value is “significantly better than that of cabozantinib and selpercatinib (LOXO-292)”.

Q: What about the IC50 (TT Cell; Homo sapiens, TT cell line, 72 h, CTG) of the same compound?
A: The IC50 was 12.7 nM.

Q: What about the “inhibitory activity on TT cells compared with cabozantinib” value (TT Cell; comparison in words) of the same compound?
A: Its value is “significantly better than that of cabozantinib”.

Q: What about the “Tumor growth inhibition rate TGI” value [1] of the same compound?
A: Its value is 87.4%.

Q: And the “Tumor growth inhibition rate” value ([2]; oral, twice a day, end of the control experiment (day 8 of the administration))?
A: The value was 92%.

Q: What about the “tumor volume compared with the selpercatinib group” value ([2]; day 8 of the administration) of the same compound?
A: The value was “significantly lower than that of the selpercatinib group”.

Q: What about the “tumor volume compared with the selpercatinib group” value ([2]; end of the experiment (day 14 of the administration)) of the same compound?
A: Its value is “significantly lower than that of the selpercatinib group”.
